In brackets after ≈: the same amount, converted by molar mass. Where two headings read alike, the source gives them in different places.
Key:
platelet aggregation [1] = assay: In vitro inhibition of ADP (1 μM)-induced platelet aggregation (turbidimetric method of Born, platelet-rich plasma); type: cell-based, guinea-pigs of Hartley strain; conditions: guinea-pig PRP, preincubated 37° C. for 10 minutes; for IC50: Cavia porcellus, Platelet
Protocol: (§1) Platelet aggregation study was carried out by a tarbidimetric method of Born (G. V. R. Born; Nature, 194, 927, 1962) using an aggregometer. Citrated blood obtained from guinea-pigs of Hartley strain was centrifuged at 120 g for 10 minutes and the supernatant, Platelet-rich plasma (PRP), was separated. In in vitro experiments, PRP was preincubated with test compounds at 37° C. for 10 minutes and then aggregation was induced by adding ADP (1 μM). Extent of aggregation was estimated with maximum changes of light transmittance within 5 minutes after adding ADP. Inhibitory potencies of compounds were expressed with the concentration showing 50% inhibition of platelet aggregation (IC50). In ex vivo experiments, compounds were orally given to guinea-pigs. Blood was taken 5 hours after the administration of compounds, and platelet aggregation study was performed as described in in vitro experiments. Potencies of compnds was expressed with minimum dose showing significant inhibition (MED).

platelet aggregation [2] = assay: Ex vivo inhibition of ADP-induced platelet aggregation 5 hours after oral administration; type: in vivo; conditions: Cavia porcellus, blood taken 5 hours after administration, guinea-pigs, read-out: Ex vivo MED (minimum dose showing significant inhibition of platelet aggregation)
Protocol: as §1

[3] = tested on: depression in amplitude of ST-segment on ECG (vasopressin); assay: Antianginal effect: vasopressin-induced depression in amplitude of ST-segment on ECG; type: in vivo, male rats of Donryu strain; conditions: Rattus norvegicus, anesthetized rats
Protocol: Antianginal effect of compounds was evaluated in male rats of Donryu strain according to Hatano et al. (N. Hatano et al.; Pharmacometrics, 19, 311, 1980) Vasopressin (0.2 IU/kg) was injected into femoral vein of anesthetized rats, and the depression in amplitude of ST-segment on ECG was measured at 30 second-intervals for 5 minutes after the vasopressin injection. Test compounds were intravenously injected 2 minutes before or orally given 30 minutes before the vasopressin injection. Data were analysed with two dimension analysis between the control and treated groups, and potencies of the compounds were expressed by MED.

[4] = tested on: gastric ulcer (HCl-ethanol induced); assay: Inhibitory effect on gastric ulcer induced by HCl-ethanol (lesion index); type: in vivo, rats (male, Wister strain); conditions: Rattus norvegicus; oral, 30 minutes before 0.4N HCl-50% ethanol (1 ml); over night-fasted rats; read-out: ED50 (dose required for 50% inhibition of lesion index)
Protocol: Gastric ulcer was induced by an oral administration of 0.4N HCl-50% ethanol (1 ml) to over night-fasted rats (male, Wister strain). One hour after HCl-ethanol administration, rats were sacrificed and their stomachs were isolated. Isolated stomachs were inflated with saline and fixed with 5% formalin. After fixation, the stomach was cut open along greater curvature and maximum length of each lesion was measured. The sum of lesion length was defined as the lesion index. Compounds were given orally 30 minutes before administration of HCl-ethanol. Potencies of compounds were expressed with ED50, the dose required for 50% inhibition of lesion index.

[5] = iv, I.V., 2 minutes before vasopressin 0.2 IU/kg, read-out: I.V. MED (antianginal effect)
[6] = po, P.O., 30 minutes before vasopressin 0.2 IU/kg, read-out: P.O. MED (antianginal effect)

Row | IC50 (platelet aggregation [1]) [µg/mL] | In Vitro IC50 (platelet aggregation) (platelet aggregation [1]) [µg/mL] | Compound | minimal effective dose (platelet aggregation [2]) [µg/kg] | minimal effective dose [3, 5] [µg/kg] | minimal effective dose [3, 6] [µg/kg] | ED50 [4] [µg/kg]
1 | 0.655 (≈ 1.7 µM) | – | CCCCC[C@H](O)/C=C/[C@H]1[C@H](O)CC(=O)[C@@H]1C/C(F)=C\CCCC(=O)OC [APG - 7, 6-fluoro-PGE2 methyl ester] | – | – | – | –
2 | 0.0127 (≈ 0.0317 µM) | – | CCCC[C@H](C)C[C@H](O)/C=C/[C@H]1[C@H](O)CC(=O)[C@H]1CC(F)CCCCC(=O)O (single isomer, unassigned; ent-17) [APG - 25] | 3000 | 1 | 0.1 | –
3 | 0.1 (≈ 0.268 µM) | – | CCCCC[C@H](O)/C=C/[C@H]1[C@H](O)CC(=O)[C@@H]1CC(F)CCCCC(=O)O (stereo partly drawn) [APG - 21, 6-fluoro-PGE1] | – | – | – | –
4 | 0.49 (≈ 1.32 µM) | – | CCCCC[C@H](O)/C=C/[C@H]1[C@H](O)CC(=O)[C@@H]1C/C(F)=C\CCCC(=O)O [APG - 5, 6-fluoro-PGE2] | – | – | – | –
5 | 0.00105 (≈ 0.00263 µM) | – | CCCC[C@H](C)C[C@H](O)/C=C/[C@H]1[C@H](O)CC(=O)[C@H]1CC(F)CC/C=C/C(=O)O (stereo partly drawn) [APG - 30, (17S)-8-ent-Δ^2-17,20-dimethyl-6-fuoro-PGE1] | 1000 | – | – | –
6 | 0.0427 (≈ 0.107 µM) | – | CCCC[C@H](C)C[C@H](O)/C=C/[C@H]1[C@H](O)CC(=O)[C@@H]1C/C(F)=C\CCCC(=O)O [APG - 27, (17S)-17,20-dimethyl-6-fluoro-PGE2] | – | – | – | 3.4
7 | 0.52 (≈ 1.4 µM) | – | CCCCC[C@H](O)/C=C/[C@H]1[C@H](O)CC(=O)[C@@H]1/C=C(/F)CCCCC(=O)O [APG - 2, (6E)-Δ^6-6-fluoro-PGE1] | – | – | – | –
8 | 0.0059 (≈ 0.0147 µM) | – | CCCC[C@H](C)C[C@H](O)/C=C/[C@H]1[C@H](O)CC(=O)[C@@H]1CC(F)CCCCC(=O)O (stereo partly drawn) [APG - 24, (17S)-17,20-dimethyl-6-fluoro-PGE1] | 300 | 10 | 0.1 | –
9 | 0.00233 (≈ 0.00585 µM) | – | CCCC[C@H](C)C[C@H](O)/C=C/[C@H]1[C@H](O)CC(=O)[C@@H]1CC(F)CC/C=C/C(=O)O (stereo partly drawn) [APG - 29, Δ^2-(17S)-17,20-dimethyl-6-fluoro-PGE1] | 100 | – | 0.1 | 1.8
10 | – | 0.0145 | CCCCCC(O)C=CC1C(O)CC(=O)C1CC(F)CCCCC(=O)O (single isomer, unassigned; ent-6) [APG - 23, 8-ent-6-fluoro-PGE1] | – | – | – | –

— US4906663A, “6-fluoroprostaglandins” (Asahi Glass Company, Ltd., priority 1987, dated 1990)
